Test results from ChEMBL document CHEMBL4613208, “Isatin derivatives and their anti-bacterial activities” (Eur J Med Chem, 2019).
Values after ≈ are worked out from the molar mass of the structure shown.

Assays:
Pseudomonas aeruginosa [1] = test: Antibacterial activity against Pseudomonas aeruginosa; assay type: functional, organism-based
Salmonella typhi = test: Antibacterial activity against Salmonella typhi; assay type: functional, Salmonella enterica subsp. enterica serovar Typhi; settings: Salmonella enterica
Bacillus cereus = test: Antibacterial activity against Bacillus cereus assessed as zone of inhibition at 100 ug/ml; assay type: functional; settings: for zone of inhibition at 100 µg/mL: read-out: IZ
Staphylococcus aureus = test: Antibacterial activity against Staphylococcus aureus assessed as zone of inhibition at 100 ug/ml; assay type: functional; settings: for zone of inhibition at 100 µg/mL: read-out: IZ
Escherichia coli = test: Antibacterial activity against Escherichia coli assessed as zone of inhibition at 100 ug/ml; assay type: functional; settings: for zone of inhibition at 100 µg/mL: read-out: IZ
Pseudomonas aeruginosa [2] = test: Antibacterial activity against Pseudomonas aeruginosa assessed as zone of inhibition at 100 ug/ml; assay type: functional; settings: for zone of inhibition at 100 µg/mL: read-out: IZ

Compound | MIC (Pseudomonas aeruginosa [1]) [nM] | MIC (Salmonella typhi) [nM] | zone of inhibition at 100 µg/mL (Bacillus cereus) [mm] | zone of inhibition at 100 µg/mL (Staphylococcus aureus) [mm] | zone of inhibition at 100 µg/mL (Escherichia coli) [mm] | zone of inhibition at 100 µg/mL (Pseudomonas aeruginosa [2]) [mm] | inhibition zone (IZ) (Bacillus cereus) [mm] | inhibition zone (IZ) (Staphylococcus aureus) [mm] | inhibition zone (IZ) (Escherichia coli) [mm] | inhibition zone (IZ) (Pseudomonas aeruginosa [2]) [mm]
Cc1ccc(NC(=O)CN2C(=O)/C(=N\c3ccccc3)c3ccccc32)cc1C | 3 to 324 (≈ 1.15 to 124 ng/mL) | 3 to 324 (≈ 1.15 to 124 ng/mL) |  |  |  |  |  |  |  | 
COc1ccc(NC(=O)CN2C(=O)/C(=N\c3ccccc3)c3ccccc32)cc1 | 3 to 324 (≈ 1.16 to 125 ng/mL) | 3 to 324 (≈ 1.16 to 125 ng/mL) |  |  |  |  |  |  |  | 
Cc1ccc(C2SCC(=O)N2c2ccc(OCC(=O)N/N=C3\C(=O)N(CN4CCCCC4)c4ccccc43)c3ncccc23)cc1 (stereo not drawn) |  |  | 6 to 19 | 6 to 19 | 6 to 19 | 6 to 19 |  |  |  | 
CN1CCN(CN2C(=O)/C(=N\NC(=O)COc3ccc(N4C(=O)C(Cl)C4c4ccccc4)c4cccnc34)c3ccccc32)CC1 (stereo not drawn) |  |  | 6 to 19 | 6 to 19 | 6 to 19 | 6 to 19 |  |  |  | 
O=C(COc1ccc(N2C(=O)C(Cl)C2c2ccc([N+](=O)[O-])cc2)c2cccnc12)N/N=C1\C(=O)N(CN2CCCCC2)c2ccccc21 (stereo not drawn) |  |  | 6 to 19 | 6 to 19 | 6 to 19 | 6 to 19 |  |  |  | 
Cc1nc2ccccc2cc1C(=O)N/N=C1\C(=O)Nc2c(Cl)cccc21 |  |  | 6 to 19 | 6 to 19 | 6 to 19 | 6 to 19 |  |  |  | 
Cc1ccc(C)c(NC(=O)CN2C(=O)/C(=N\c3ccccc3)c3ccccc32)c1 | 3 to 324 (≈ 1.15 to 124 ng/mL) | 3 to 324 (≈ 1.15 to 124 ng/mL) |  |  |  |  |  |  |  | 
Cc1ccc(NC(=O)CN2C(=O)/C(=N\c3cc(C)ccc3C)c3ccccc32)cc1 | 3 to 324 (≈ 1.19 to 129 ng/mL) | 3 to 324 (≈ 1.19 to 129 ng/mL) |  |  |  |  |  |  |  | 
O=C(COc1ccc(N2C(=O)C(Cl)C2c2ccc(Cl)cc2)c2cccnc12)N/N=C1\C(=O)N(CN2CCCCC2)c2ccccc21 (stereo not drawn) |  |  | 6 to 19 | 6 to 19 | 6 to 19 | 6 to 19 |  |  |  | 
COc1cccc(NC(=O)CN2C(=O)/C(=N\c3cc(C)ccc3C)c3ccccc32)c1 | 3 to 15 (≈ 1.24 to 6.2 ng/mL) | 3 to 15 (≈ 1.24 to 6.2 ng/mL) |  |  |  |  |  |  |  | 
Cc1nc2ccccc2cc1C(=O)N/N=C1\C(=O)Nc2c(Br)cc(Br)cc21 |  |  | 6 to 19 | 6 to 19 | 6 to 19 | 6 to 19 |  |  |  | 
Cc1nc2ccccc2cc1C(=O)N/N=C1\C(=O)Nc2ccc(Cl)c(Cl)c21 |  |  | 6 to 19 | 6 to 19 | 6 to 19 | 6 to 19 |  |  |  | 
CN1CCN(CN2C(=O)/C(=N\NC(=O)COc3ccc(N4C(=O)CSC4c4ccccc4)c4cccnc34)c3ccccc32)CC1 (stereo not drawn) |  |  | 6 to 19 | 6 to 19 | 6 to 19 | 6 to 19 |  |  |  | 
COc1ccc(C2C(Cl)C(=O)N2c2ccc(OCC(=O)N/N=C3\C(=O)N(CN4CCCCC4)c4ccccc43)c3ncccc23)cc1 (stereo not drawn) |  |  | 6 to 19 | 6 to 19 | 6 to 19 | 6 to 19 |  |  |  | 
Cc1nc2ccccc2cc1C(=O)N/N=C1\C(=O)Nc2c(Br)ccc(Br)c21 |  |  | 6 to 19 | 6 to 19 | 6 to 19 | 6 to 19 |  |  |  | 
Cc1nc2ccccc2cc1C(=O)N/N=C1\C(=O)Nc2ccccc21 |  |  | 6 to 19 | 6 to 19 | 6 to 19 | 6 to 19 |  |  |  | 
Cc1nc2ccccc2cc1C(=O)N/N=C1\C(=O)Nc2c(Br)cccc21 |  |  | 6 to 19 | 6 to 19 | 6 to 19 | 6 to 19 |  |  |  | 
Cc1ccc(NC(=O)CN2C(=O)/C(=N\c3ccccc3)c3ccccc32)c(C)c1 | 3 to 324 (≈ 1.15 to 124 ng/mL) | 3 to 324 (≈ 1.15 to 124 ng/mL) |  |  |  |  |  |  |  | 
Cc1nc2ccccc2cc1C(=O)N/N=C1\C(=O)Nc2c1ccc(Cl)c2Cl |  |  | 6 to 19 | 6 to 19 | 6 to 19 | 6 to 19 |  |  |  | 
O=C(COc1ccc(N2C(=O)C(Cl)C2c2ccccc2)c2cccnc12)N/N=C1\C(=O)N(CN2CCOCC2)c2ccccc21 (stereo not drawn) |  |  | 6 to 19 | 6 to 19 | 6 to 19 | 6 to 19 |  |  |  | 
O=C(COc1ccc(N2C(=O)C(Cl)C2c2ccc(Br)cc2)c2cccnc12)N/N=C1\C(=O)N(CN2CCCCC2)c2ccccc21 (stereo not drawn) |  |  | 6 to 19 | 6 to 19 | 6 to 19 | 6 to 19 |  |  |  | 
O=C(COc1ccc(N2C(=O)CSC2c2ccccc2)c2cccnc12)N/N=C1\C(=O)N(CN2CCOCC2)c2ccccc21 (stereo not drawn) |  |  | 6 to 19 | 6 to 19 | 6 to 19 | 6 to 19 |  |  |  | 
O=C(COc1ccc(N2C(=O)CSC2c2ccc(Cl)cc2)c2cccnc12)N/N=C1\C(=O)N(CN2CCCCC2)c2ccccc21 (stereo not drawn) |  |  | 6 to 19 | 6 to 19 | 6 to 19 | 6 to 19 |  |  |  | 
GENTAMICIN |  |  |  |  |  |  | 19 to 27 | 19 to 27 | 19 to 27 | 19 to 27
Cc1nc2ccccc2cc1C(=O)N/N=C1\C(=O)Nc2cc(Cl)cc(Cl)c21 |  |  | 6 to 19 | 6 to 19 | 6 to 19 | 6 to 19 |  |  |  | 
